Here are results for one compound from patent EP0429333B1, “Process for producing oxazopyrroloquinolines, novel oxazopyrroloquinolines, and use of oxazopyrroloquinolines” (priority 1989, dated 1991).

Data set [1] is described as follows: Acute toxicity test. Conditions: mouse, in vivo, ip. As for the experimental part:
(§1) (1) Acute toxicity test: • (i) To male SPF-ICR mice of 5 weeks old (supplied by Charles River Co.) were intraperitoneally administered PQQ·2Na and OPQs in the dosages of 20, 40, 80, 160 and 200 mg/kg body weight of mouse, respectively and they were bred at 25°C for 14 days. OPQ, 1-methylpropyl OPQ, 2-methylthioethyl OPQ, and benzyl OPQ were used as the OPQs. One group consisted of 8 mice. […] One group consisted of 8 mice. […] They were bred at 25°C for 14 days. One group consisted of eight mice. […] (2) Toxicity to kidney (i) Toxicity to kidney determined by urine examination: In the same manner as in the acute toxicity test, PQQ·2Na and OPQs were respectively intraperitoneally administered to mice and these mice were bred. Urine was collected every day and concentration of glucose in urine was obtained using Uristex II (manufactured by Miles·Sankyo Co.). […]

The test system of data set [2] is male SPF-ICR mice. The experiment in a line: Acute toxicity test. As for the experimental part:
as §1

Data set [3] addresses T1, aldose reductase of rabbit lens (Oryctolagus cuniculus, UniProt P15122).
T1 construct: to obtain electrophoretically homogeneous aldose reductase; from tissue; host or cells: rabbit lens
The experiment in a line: Inhibitory effect on aldose reductase of lens. The conditions noted are these: read-out: Degree of inhibition for aldose reductase (%). It counts as biochemical. In short, it runs like this: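 Electrophoretically homogeneous aldose reductase purified from rabbit lens was assayed with NADPH (0.05 ml of 3 mM stock) and DL-glyceraldehyde in 0.1 M phosphate buffer pH 6.2 at 25 °C. Activity was followed as the decrease in A340 over time. Inhibition was calculated against activity without inhibitor, with compounds tested at various concentrations.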

In data set [4] the test system is cataract. The experiment in a line: Anti-cataract effect, intraperitoneal administration, 50 % galactose fed rats. Conditions: 2 mg, 5 mg, 10 mg and 20 mg per 1 kg of rat intraperitoneally once a day. The format is in vivo, Sprague-Davley rats. The procedure: Eightyfour male Sprague-Davley rats (supplied from Japan Charles Liver Co.) of four weeks old and having a body weight of 70 - 80 g were used and the following experiments were conducted. One group consisted of six rats.
The groups included normal group, 50 % galactose administration group, PQQ administration group, and OPQ administration group. Commercially available feeding stuff (manufactured by Japan Clea Co.) was given to the rats of normal group, and rats of 50 % galactose administration group, PQQ administration group and OPQ administration group were allowed to freely take powdery feeding stuff comprising a mixture of the above-mentioned commercially available powder feeding stuff and D-galactose for food additive in equal weight.
To the rats of PQQ and OPQ administration groups were intraperitoneally administered PQQ·2Na or OPQ in a dosage of 2 mg, 5 mg, 10 mg and 20 mg per 1 kg of rat once a day simultaneously with starting of galactose feeding and until termination of feeding.
On the 6th day and the 9th day from starting of experiment, eyeball was observed by stereoscopic microscope and judgment on cataract was made according to the following criteria. A0: No muddiness (normal) A1: Light white muddiness in the surface portion. A2: A slight heavy white muddiness in the surface portion. A3: Heavy white muddiness in the surface portion. A4: Heavy white muddiness in the surface portion and a slight white muddiness in the core portion. A5: Heavy white muddiness in the surface portion and the core portion.

The subject of data set [5] is T cell. The experiment in a line: Test on T cell blast transformation reaction (2), compound added to spleen cell culture. It counts as cell-based, C3H/He mice. The conditions noted are these: for Relative activity (%): Concanavalin A 1.0 µg/ml, without compound = 100. The procedure: Cells of spleen were obtained in the same manner as in Example 38 except that OPQ was not administered using five C3H/He mice (male, 7 weeks old, average body weight of 20 g, supplied by Japan Charles Liver Co.).
Then, the cells were suspended in RPMI medium at 4 x 10^6 cells/ml and the suspension was put in a flat bottom microplate of 96 holes. Culture was carried out in the air containing 5 % of CO2 at 37°C using 1.0 µg/ml of concanavalin A as mitogen with addition of 0.5 or 2.0 µg/ml of OPQ. After 63 hours from starting of culture, ^3H-thymidine was added at 2.5 µCi/ml and culture was carried out for further 9 hours. Thereafter, cells were gathered on a glass fiber filter by cell harvester and ^3H on the filter was measured by a liquid scintillation counter.
As control, same four cultures were conducted under respective conditions without adding concanavalin A or OPQ. Values in the table are average values of intake amount (cpm) of ^3H in culture under four same conditions. Activity acceleration effect of OPQ was not recognized when concanavalin A was not added, but activity acceleration effect of OPQ was recognized when concanavalin A was added.
In Examples 36 - 40, macrophage activity was examined according to chemotaxis of peritoneal macrophage (literature 1) and activity of T cell and that of B cell were examined according to blast transformation reaction using concanavalin A and lipopolysaccharide, (LPS) as mitogen (literature 2). Literature 1: "Function of Macrophage and Method of Measurement of Function", pages 61-65 1985), edited by Educational Committee of Japan Bacteriological Society and published from Saikon Shuppan Co.) Literature 2: "New Method of Searching of Function of Lymphocytes", pages 350-355 (1987) edited by Junichi Yada and Michio Fujiwara and published from Chugai Igaku Co.

As usually defined, the LD50 is the dose at which mortality reaches 50%. Read a high LD50 as a less toxic substance. For orientation: inhibition means the change of the read-out against control, counted positive when it falls.

On to `O=C(O)c1cc(C(=O)O)c2c(n1)c1ncoc1c1cc(C(=O)O)[nH]c12` [OPQ, oxazopyrroloquinoline], for which the median lethal dose (LD50) at 336 h in data set [1] is approximately 1000 mg/kg. The death of mice result in data set [2] (0.1 - 0.4 g/kg intraperitoneally, 8 mice per group, 14 days) is “All mice survived”; in data set [2] (0.8 g/kg intraperitoneally, 8 mice, 14 days), “two mice died”; in data set [2] (1.2 g/kg intraperitoneally, 8 mice, 14 days) it was “six mice died”; in data set [2] (mouse, in vivo), “no mice died”; in data set [2] (orally 1.0 g, 1.5 g or 2.0 g/kg mouse, 8 mice per group, 14 days), “No mice died”. The inhibition at 0.1 µM in data set [3] (concentration 1x10^-7 M) came to 43.2%. In addition, the inhibition at 0.2 µM in data set [3] (concentration 2x10^-7 M) came to 54.5%. Further, the inhibition at 0.5 µM in data set [3] (concentration 5x10^-7 M) was 63.1%. In addition, the inhibition at 0.05 µM in data set [3] (concentration 5x10^-8 M) came out at 31%. Moreover, the rats died entry in data set [4] is reported as “no rats died”. Also, the entries for the “Relative activity (%)” value in data set [5] (0.5 µg/ml added to culture) and in data set [5] (2.0 µg/ml added to culture) were 146% and 130%, respectively. The “intake amount (cpm) of ^3H” value in data set [5] (0.5 µg/ml added to culture, concanavalin 0 µg/ml, without compound 2077) came to 1946 cpm; in data set [5] (0.5 µg/ml added to culture, concanavalin 1.0 µg/ml, without compound 89091), 130775 cpm; in data set [5] (2.0 µg/ml added to culture, concanavalin 0 µg/ml, without compound 2077) it was 2031 cpm; in data set [5] (2.0 µg/ml added to culture, concanavalin 1.0 µg/ml, without compound 89091) it was 116093 cpm.
